≈ marks a conversion by molar mass, not a printed value. Where two headings read alike, the source gives them in different places.
Experiment: Solubility data of acadesine in injectable solution
Format: physicochemical

`NC(=O)c1ncn([C@@H]2O[C@H](CO)[C@@H](O)[C@H]2O)c1N` [Acadesine, 5-aminoimidazole-4-carboxamide (AICA) riboside] showed a solubility (5° C., injectable solution pH 6.0-8.0 (with antioxidant), read-out: solubility data supports) of 18 mg/mL (≈ 69.7 mM), a solubility (5° C., injectable solution pH 7.2-8.0, read-out: solubility data supports) of 18 mg/mL (≈ 69.7 mM) and a solubility (5° C., injectable solution pH range 8.8-9.6, read-out: Available solubility data supports up to) of no more than 21.5 mg/mL. The solubility (5 °C, injectable solution pH 8.8-9.6, read-out: solubility data supports) was 18 mg/mL (≈ 69.7 mM), the solubility (Room temperature, injectable solution pH 6.0-8.0 (with antioxidant), read-out: solubility data supports) was 60 mg/mL (≈ 232 mM) and the solubility (Room temperature, injectable solution pH 7.2-8.0, read-out: solubility data supports) was 60 mg/mL (≈ 232 mM). It also gave a solubility (Room temperature, injectable solution pH 8.8-9.6, read-out: solubility data supports) of 60 mg/mL (≈ 232 mM).

Reference: patent US20120258926A1, “FORMULATIONS OF ACADESINE” (priority 2009, published 2012)
